Measured values taken from US11384060B2, “Amide compounds and use thereof” (ALPHALA CO., LTD., priority 2017, dated 2022).
Read-outs that look alike come from different tables or passages of the source.

How the values were obtained:
[1] = target: T1, glucagon receptor (GCGR) overexpressed CHO-K1 cells or human primary hepatocytes (Homo sapiens, UniProt P47871); experiment: Glucagon cAMP inhibition assay (Cisbio cAMP Dynamic 2 HTRF); format: cell-based
T1 construct: expressed in transfected cells; host or cells: GCGR overexpressed CHO-K1 cells or human primary hepatocytes (endogenous receptor)
T1 sequence (P47871 26-477): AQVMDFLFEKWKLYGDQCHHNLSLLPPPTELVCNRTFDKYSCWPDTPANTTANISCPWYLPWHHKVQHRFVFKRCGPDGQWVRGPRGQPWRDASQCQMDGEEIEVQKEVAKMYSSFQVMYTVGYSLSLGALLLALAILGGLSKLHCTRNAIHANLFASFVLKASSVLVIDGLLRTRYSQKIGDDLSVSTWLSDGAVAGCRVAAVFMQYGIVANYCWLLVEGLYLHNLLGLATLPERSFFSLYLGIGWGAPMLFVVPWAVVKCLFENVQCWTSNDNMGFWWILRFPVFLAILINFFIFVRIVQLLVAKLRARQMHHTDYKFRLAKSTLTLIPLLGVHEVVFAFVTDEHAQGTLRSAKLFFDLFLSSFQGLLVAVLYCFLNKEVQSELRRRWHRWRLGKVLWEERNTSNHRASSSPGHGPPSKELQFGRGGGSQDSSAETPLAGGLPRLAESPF
Outline: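 GCGR-overexpressing CHO-K1 cells or human primary hepatocytes in HBSS with 0.1% BSA and 800 nM IBMX, pre-incubated 30 min with serially diluted compounds (1% DMSO final), then stimulated 30 min at room temperature with glucagon at its EC50. cAMP measured by HTRF after 60 min lysis; IC50 by non-linear regression.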

glucagon receptor (GCGR) = target: T2, glucagon receptor (GCGR) (Homo sapiens, UniProt P47871); experiment: I125-glucagon binding assay (competition, GCGR membrane fractions)
T2 construct: expressed in transfected cells; host or cells: CHO-K1 cells overexpressing GCGR (membrane fractions)
T2 sequence (P47871 26-477): as above
Outline: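 Membranes from CHO-K1 cells overexpressing GCGR, 7.5 μg/well in 50 mM Tris pH 7.4 with 0.5% BSA, were preincubated 5 min with serially diluted compounds, then given 0.0625 nM final I^125-glucagon for 30 min at 25° C. Bound label was filtered on PEI-coated GF/B and counted; IC50 by non-linear regression.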

| IC50 cAMP [1] [µM] | IC50 (glucagon receptor (GCGR); uM) [µM] | IC50 (glucagon receptor (GCGR)) [µM] | IC50 cAMP ([1]; uM) [µM] | SMILES |
| --- | --- | --- | --- | --- |
| 2 | > 10 | – | – | O=C(O)CCNC(=O)c1ccc(N[C@@H](Cc2ccccc2)C(=O)Nc2ccc(-c3cc4ccccc4o3)cc2)cc1 [Compound 23-8, (S)-3-(4-((1-((4-(benzofuran-2-yl)phenyl)amino)-1-oxo-3-phenylpropan-2-yl)amino)benzamido)propanoic Acid] |
| 2.6 | – | 1.94 | – | CCOC(=O)CCNC(=O)c1ccc(N[C@@H](Cc2ccc(F)cc2)C(=O)Nc2ccc(-c3cc4ccccc4o3)cc2)cc1 [Compound 23-9, Ethyl (S)-3-(4-((1-((4-(benzofuran-2-yl)phenyl)amino)-3-(4-fluorophenyl)-1-oxopropan-2-yl)amino)benzamido)propanoate] |
| 1.9 | – | 0.061 | – | O=C(O)CCNC(=O)c1ccc(N[C@@H](Cc2ccc(F)cc2)C(=O)Nc2ccc(-c3cc4ccccc4o3)cc2)cc1 [Compound 23-10, (S)-3-(4-((1-((4-(benzofuran-2-yl)phenyl)amino)-3-(4-fluorophenyl)-1-oxopropan-2-yl)amino)benzamido)propanoic Acid] |
| 6.8 | > 10 | – | – | CCOC(=O)CCNC(=O)c1ccc(N[C@@H](CC(C)C)C(=O)Nc2ccc(-c3cc4ccccc4s3)cc2)cc1 [Compound 23-11, Ethyl (S)-3-(4-((1-((4-(benzo[b]thiophen-2-yl)phenyl)amino)-4-methyl-1-oxopentan-2-yl)amino)benzamido)propanoate] |
| 4.1 | – | 0.375 | – | CC(C)C[C@H](Nc1ccc(C(=O)NCCC(=O)O)cc1)C(=O)Nc1ccc(-c2cc3ccccc3s2)cc1 [Compound 23-12, (S)-3-(4-((1-((4-(benzo[b]thiophen-2-yl)phenyl)amino)-4-methyl-1-oxopentan-2-yl)amino)benzamido)propanoic Acid] |
| – | > 10 | – | >10 | CCOC(=O)CCNC(=O)c1ccc(N[C@@H](Cc2cccc3ccccc23)C(=O)Nc2ccc(-c3cc4ccccc4o3)cc2)cc1 [Compound 23-13, Ethyl (S)-3-(4-((1-((4-(benzofuran-2-yl)phenyl)amino)-3-(naphthalen-1-yl)-1-oxopropan-2-yl)amino)benzamido)propanoate] |
| – | > 10 | – | >10 | O=C(O)CCNC(=O)c1ccc(N[C@@H](Cc2ccccc2)C(=O)Nc2ccc(-c3ccc(Cl)cc3Cl)cc2)cc1 [Compound 23-14, (S)-3-(4-((1-((2′,4′-dichloro-[1,1′-biphenyl]-4-yl)amino)-1-oxo-3-phenylpropan-2-yl)amino)benzamido)propanoic Acid] |
| 6.3 | > 10 | – | – | CCOC(=O)CCNC(=O)c1ccc(N[C@@H](Cc2ccccc2)C(=O)Nc2ccc(-c3ccc(Cl)cc3Cl)cc2)cc1 [Compound 23-15, Ethyl (S)-3-(4-((1-((2′,4′-dichloro-[1,1′-biphenyl]-4-yl)amino)-1-oxo-3-phenylpropan-2-yl)amino)benzamido)propanoate] |
| 1.193 | – | 3.01 | – | O=C(O)CCNC(=O)c1ccc(N[C@@H](Cc2cccc3ccccc23)C(=O)Nc2ccc(-c3cc4ccccc4o3)cc2)cc1 [Compound 23-16] |
| 7.4 | > 10 | – | – | CCOC(=O)CCNC(=O)c1ccc(N[C@@H](Cc2cccc3ccccc23)C(=O)Nc2ccc(C(C)(C)C)cc2)cc1 [Compound 23-17, Ethyl (S)-3-(4-((1-((4-(tert-butyl)phenyl)amino)-3-(naphthalen-1-yl)-1-oxopropan-2-yl)amino)benzamido)propanoate] |
| 4.7 | – | 1.87 | – | CC(C)(C)c1ccc(NC(=O)[C@H](Cc2cccc3ccccc23)Nc2ccc(C(=O)NCCC(=O)O)cc2)cc1 [Compound 23-18, (S)-3-(4-((1-((4-(tert-butyl)phenyl)amino)-3-(naphthalen-1-yl)-1-oxopropan-2-yl)amino)benzamido)propanoic Acid] |
| 5.4 | > 10 | – | – | CCOC(=O)CCNC(=O)c1ccc(N[C@@H](Cc2ccc3ccccc3c2)C(=O)Nc2ccc(C(C)(C)C)cc2)cc1 [Compound 23-19, Ethyl (S)-3-(4-((1-((4-(tert-butyl)phenyl)amino)-3-(naphthalen-2-yl)-1-oxopropan-2-yl)amino)benzamido)propanoate] |
| 4.7 | – | 0.724 | – | CC(C)(C)c1ccc(NC(=O)[C@H](Cc2ccc3ccccc3c2)Nc2ccc(C(=O)NCCC(=O)O)cc2)cc1 [Compound 23-20, (S)-3-(4-((1-((4-(tert-butyl)phenyl)amino)-3-(naphthalen-2-yl)-1-oxopropan-2-yl)amino)benzamido)propanoic Acid] |
| – | > 10 | – | >10 | CCOC(=O)CCNC(=O)c1ccc(N[C@@H](Cc2ccc3ccccc3c2)C(=O)Nc2ccc(-c3cc4ccccc4o3)cc2)cc1 [Compound 23-21, Ethyl (S)-3-(4-((1-((4-(benzofuran-2-yl)phenyl)amino)-3-(naphthalen-2-yl)-1-oxopropan-2-yl)amino)benzamido)propanoate] |
| 32.1 | > 10 | – | – | O=C(O)CCNC(=O)c1ccc(N[C@@H](Cc2ccc3ccccc3c2)C(=O)Nc2ccc(-c3cc4ccccc4o3)cc2)cc1 [Compound 23-22, (S)-3-(4-((1-((4-(benzofuran-2-yl)phenyl)amino)-3-(naphthalen-2-yl)-1-oxopropan-2-yl)amino)benzamido)propanoic Acid] |
| 5.8 | – | 4.15 | – | O=C(O)CCNC(=O)c1ccc(N[C@@H](Cc2ccccc2)C(=O)Nc2ccc(-c3ccccc3C(F)(F)F)cc2)cc1 [Compound 23-23] |
| – | > 10 | – | >10 | O=C(NCCS(=O)(=O)O)c1ccc(N[C@@H](Cc2ccccc2)C(=O)Nc2ccc(-c3cc4ccccc4o3)cc2)cc1 [Compound 23-24, (S)-2-(4-((1-((4-(benzofuran-2-yl)phenyl)amino)-1-oxo-3-phenylpropan-2-yl)amino)benzamido)ethane-1-sulfonic Acid] |
| 3.1 | – | 0.458 | – | Cc1cc(C)c(-c2ccc(C[C@H](Nc3ccc(C(=O)NCCC(=O)O)cc3)C(=O)Nc3ccc(C(C)(C)C)cc3)cc2)c(C)c1 [Compound 23-25] |
| 0.179 | – | 6.94 | – | COC(=O)CCNC(=O)c1ccc(N[C@@H](CC(C)C)C(=O)Nc2ccc(-c3cc4ccccc4[nH]3)cc2)cc1 [Compound 23-28, Methyl (S)-3-(4-((1-((4-(1H-indol-2-yl)phenyl)amino)-4-methyl-1-oxopentan-2-yl)amino)benzamido)propanoate] |
| – | – | 0.141 | >10 | CC(C)C[C@H](Nc1ccc(C(=O)NCCC(=O)O)cc1)C(=O)Nc1ccc(-c2cc3ccccc3[nH]2)cc1 [Compound 23-29, (S)-3-(4-((1-((4-(1H-indol-2-yl)phenyl)amino)-4-methyl-1-oxopentan-2-yl)amino)benzamido)propanoic Acid] |
| 0.0252 | – | 1.48 | – | CCOC(=O)CCNC(=O)c1ccc(N[C@H](C(=O)Nc2ccc(-c3cc4ccccc4o3)cc2)[C@@H](C)CC)cc1 [Compound 23-30] |
| 4.145 | – | 0.294 | – | CC[C@H](C)[C@H](Nc1ccc(C(=O)NCCC(=O)O)cc1)C(=O)Nc1ccc(-c2cc3ccccc3o2)cc1 [Compound 23-31, 3-(4-(((2S,3S)-1-((4-(benzofuran-2-yl)phenyl)amino)-3-methyl-1-oxopentan-2-yl)amino)benzamido)propanoic Acid] |
| 0.0928 | – | 5.18 | – | CCOC(=O)CCNC(=O)c1ccc(N[C@H](C(=O)Nc2ccc(-c3cc4ccccc4o3)cc2)C(C)C)cc1 [Compound 23-32, Ethyl (S)-3-(4-((1-((4-(benzofuran-2-yl)phenyl)amino)-3-methyl-1-oxobutan-2-yl)amino)benzamido)propanoate] |
| 1.633 | – | 1.01 | – | CC(C)[C@H](Nc1ccc(C(=O)NCCC(=O)O)cc1)C(=O)Nc1ccc(-c2cc3ccccc3o2)cc1 [Compound 23-33, (S)-3-(4-((1-((4-(benzofuran-2-yl)phenyl)amino)-3-methyl-1-oxobutan-2-yl)amino)benzamido)propanoic Acid] |
| 75.611 | – | 2.57 | – | CC(C)[C@H](Nc1ccc(C(=O)NCCS(=O)(=O)O)cc1)C(=O)Nc1ccc(-c2cc3ccccc3o2)cc1 [Compound 23-34, (S)-2-(4-((1-((4-(benzofuran-2-yl)phenyl)amino)-3-methyl-1-oxobutan-2-yl)amino)benzamido)ethane-1-sulfonic Acid] |
| 15.397 | – | 0.186 | – | CCCC[C@H](Nc1ccc(C(=O)NCCC(=O)O)cc1)C(=O)Nc1ccc(-c2cc3ccccc3o2)cc1 [Compound 23-35, (S)-3-(4-((1-((4-(benzofuran-2-yl)phenyl)amino)-1-oxohexan-2-yl)amino)benzamido) propanoic Acid] |
| 1.5 | > 10 | – | – | CCOC(=O)CCNC(=O)c1ccc(N[C@H](CC(C)C)C(=O)Nc2ccc(-c3cc4ccccc4o3)cc2)cc1 [Compound 24-1] |
| 0.5986 | – | 0.311 | – | CC(C)C[C@@H](Nc1ccc(C(=O)NCCC(=O)O)cc1)C(=O)Nc1ccc(-c2cc3ccccc3o2)cc1 [Compound 24-2, (R)-3-(4-((1-((4-(benzofuran-2-yl)phenyl)amino)-4-methyl-1-oxopentan-2-yl)amino)benzamido)propanoic Acid] |
